Results as given in patent publication US8232409B2, “Heterocyclic benzimidazoles as TRPM8 modulators” (Janssen Pharmaceutica N.V., priority 2008, dated 2012).
Structures can show the parent of a compound that is named as a salt.

Experiments:
[1] = system: CCI-induced cold hypersensitivity in Sprague Dawley rats; assay: Chronic constriction injury (CCI)-induced neuropathic pain, acetone-induced cold hypersensitivity; format: in vivo; conditions: po; rat CCI; 10 mg/kg p.o.; 3 h post-dose; read-out: % Inhibition (acetone-evoked paw withdrawals)
From the text: Male Sprague Dawley rats (225-450 g; n=5-8/treatment) were used to evaluate the ability of selected compounds of the Formula (I) to reverse CCI-induced cold hypersensitivity. Four loose ligatures of 4-0 chromic gut were surgically placed around the left sciatic nerve under inhalation anesthesia as described by Bennett et al. (Bennett, G. J.; Xie, Y. K. Pain 1988, 33(1), 87-107). Fourteen to 35 days following CCI surgery, subjects were placed in elevated observation chambers containing wire mesh floors and five applications of acetone (0.05 mL/application separated by approximately 5 minutes) were spritzed onto the plantar surface of the paw using a multidose syringe. An abrupt withdrawal or lifting of the paw was considered a positive response. The number of positive responses was recorded for each rat over the five trials. Following baseline withdrawal determinations, compounds of Formula (I) are administered in an appropriate vehicle, such as hydroxypropyl-β-cyclodextrin ([…]), methylcellulose, Methocel, 10% Solutol, or H2O, or the like, by the appropriate route, i.p. or p.o. The number of withdrawals were redetermined 1 to 3 h after compound administration. Results are presented as a percent inhibition of shakes, which was calculated for each subject as [1−(test compound withdrawals/pre-test withdrawals)]×100 and then averaged by treatment.

[2] = system: icilin-induced "wet-dog" shakes in Sprague Dawley rats; assay: Reversal of icilin-induced "wet-dog" shakes in rats; format: in vivo; conditions: po; rat; 10 mg/kg p.o.; 1 h post-icilin
[3] = target: T1, canine TRPM8 (Canis lupus familiaris, UniProt Q1A7N1); assay: In vitro canine TRPM8 functional assay (icilin-induced intracellular Ca2+, FLIPR/FDSS);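 further: intracellular Ca2+ tracked with a Ca2+-sensitive fluorescent dye, compound applied 5 min before icilin was added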; format: cell-based; conditions: 0.200 μM compound; HEK293 cells stably expressing canine TRPM8; icilin challenge (~80% maximal response); read-out: % Inh. @ 0.200 μM
T1 construct: expressed in transfected cells
T1 sequence (Q1A7N1 1-1104): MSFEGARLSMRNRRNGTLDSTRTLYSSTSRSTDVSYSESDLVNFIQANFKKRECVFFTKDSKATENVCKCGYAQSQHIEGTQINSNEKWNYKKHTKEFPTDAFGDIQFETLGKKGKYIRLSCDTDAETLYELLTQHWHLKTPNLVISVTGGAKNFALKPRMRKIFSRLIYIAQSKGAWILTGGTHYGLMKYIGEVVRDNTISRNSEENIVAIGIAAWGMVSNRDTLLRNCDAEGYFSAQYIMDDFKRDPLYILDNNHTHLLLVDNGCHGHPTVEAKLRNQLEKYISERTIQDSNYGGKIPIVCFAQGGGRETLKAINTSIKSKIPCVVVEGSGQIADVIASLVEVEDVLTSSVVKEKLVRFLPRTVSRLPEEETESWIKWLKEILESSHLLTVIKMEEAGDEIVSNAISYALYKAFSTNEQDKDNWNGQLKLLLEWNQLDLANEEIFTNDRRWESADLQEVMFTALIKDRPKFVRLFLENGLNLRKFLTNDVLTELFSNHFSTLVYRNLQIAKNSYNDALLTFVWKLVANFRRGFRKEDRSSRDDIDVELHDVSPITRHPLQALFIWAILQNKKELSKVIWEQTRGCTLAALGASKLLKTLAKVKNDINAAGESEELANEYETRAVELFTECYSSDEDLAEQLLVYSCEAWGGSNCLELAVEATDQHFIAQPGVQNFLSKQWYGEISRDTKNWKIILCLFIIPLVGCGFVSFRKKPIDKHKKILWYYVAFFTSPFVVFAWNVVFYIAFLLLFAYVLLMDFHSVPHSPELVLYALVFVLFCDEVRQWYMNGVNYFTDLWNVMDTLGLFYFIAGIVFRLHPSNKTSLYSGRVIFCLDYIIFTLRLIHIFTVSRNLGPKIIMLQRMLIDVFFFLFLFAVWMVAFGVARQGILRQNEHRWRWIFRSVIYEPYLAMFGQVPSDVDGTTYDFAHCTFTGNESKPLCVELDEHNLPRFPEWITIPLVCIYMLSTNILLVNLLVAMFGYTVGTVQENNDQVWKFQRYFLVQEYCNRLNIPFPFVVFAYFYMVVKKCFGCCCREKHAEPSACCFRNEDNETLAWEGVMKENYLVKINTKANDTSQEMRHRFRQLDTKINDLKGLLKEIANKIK

SMILES	inhibition in vivo at 10 mg/kg [1] [%]	inhibition in vivo at 10 mg/kg [2] [%]	inhibition at 0.2 µM [3] [%]
FC(F)(F)c1ccccc1-c1cc(Cl)c2[nH]c(C3=NOC4(CCCCC4)C3)nc2c1 [Cpd 16, 3-[7-Chloro-5-(2-trifluoromethylphenyl)-1H-benzimidazol-2-yl]-1-oxa-2-aza-spiro[4.5]dec-2-ene hydrochloride]	82.5	> 99	–
FC(F)(F)c1ccccc1-c1cc(C(F)(F)F)c2[nH]c(C3=NOC4(CCCCC4)C3)nc2c1 [Cpd 27, 3-[7-Trifluoromethyl-5-(2-trifluoromethyl-phenyl)-1H-benzimidazol-2-yl]-1-oxa-2-aza-spiro[4.5]dec-2-ene hydrochloride]	83	> 99	100
FC(F)(F)c1cc(-c2ccccc2Cl)cc2nc(C3=NOC4(CCCCC4)C3)[nH]c12 [Cpd 30, 3-[5-(2-Chloro-phenyl)-7-trifluoromethyl-1H-benzimidazol-2-yl]-1-oxa-2-aza-spiro[4.5]dec-2-ene hydrochloride]	62.9	> 98	97
FC(F)(F)Oc1ccccc1-c1cc(C(F)(F)F)c2[nH]c(C3=NOC4(CCCCC4)C3)nc2c1 [Cpd 51, 3-[5-(2-Trifluoromethoxyphenyl)-7-trifluoromethyl-1H-benzimidazol-2-yl]-1-oxa-2-aza-spiro[4.5]dec-2-ene hydrochloride]	57.1	> 98	97
Fc1ccccc1-c1cc(C(F)(F)F)c2[nH]c(C3=NOC4(CCCCC4)C3)nc2c1 [Cpd 53, 3-[5-(2-Fluorophenyl)-7-trifluoromethyl-1H-benzimidazol-2-yl]-1-oxa-2-aza-spiro[4.5]dec-2-ene hydrochloride]	42.9	> 98	97
